Assay results published in ChEMBL document CHEMBL1154073, “Combining selectivity and affinity predictions using an integrated Support Vector Machine (SVM) approach: An alternative tool to discriminate between the human adenosine A(2A) and A(3) receptor pyrazolo-triazolo-pyrimidine antagonists binding sites” (Bioorg Med Chem, 2009).

How the values were obtained:
[1] = target: T1, Adenosine receptor A1 (Homo sapiens, UniProt P30542); assay: Displacement of [3H]CCPA from human adenosine A1 receptor expressed in CHO cells; format: cell-based
T1 sequence (P30542 whole entry): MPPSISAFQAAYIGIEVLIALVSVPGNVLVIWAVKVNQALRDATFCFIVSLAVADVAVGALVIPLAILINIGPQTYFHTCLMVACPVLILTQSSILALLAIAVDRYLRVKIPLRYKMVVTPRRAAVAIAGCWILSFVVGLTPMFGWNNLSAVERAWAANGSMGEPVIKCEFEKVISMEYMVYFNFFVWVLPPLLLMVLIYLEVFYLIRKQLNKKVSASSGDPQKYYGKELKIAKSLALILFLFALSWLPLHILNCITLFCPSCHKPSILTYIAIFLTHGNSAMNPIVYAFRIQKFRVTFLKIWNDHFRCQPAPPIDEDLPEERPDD

[2] = target: T2, Adenosine receptor A3 (Homo sapiens, UniProt P0DMS8); assay: Displacement of [3H]NECA from human adenosine A3 receptor expressed in CHO cells; format: cell-based
T2 sequence (P0DMS8 whole entry): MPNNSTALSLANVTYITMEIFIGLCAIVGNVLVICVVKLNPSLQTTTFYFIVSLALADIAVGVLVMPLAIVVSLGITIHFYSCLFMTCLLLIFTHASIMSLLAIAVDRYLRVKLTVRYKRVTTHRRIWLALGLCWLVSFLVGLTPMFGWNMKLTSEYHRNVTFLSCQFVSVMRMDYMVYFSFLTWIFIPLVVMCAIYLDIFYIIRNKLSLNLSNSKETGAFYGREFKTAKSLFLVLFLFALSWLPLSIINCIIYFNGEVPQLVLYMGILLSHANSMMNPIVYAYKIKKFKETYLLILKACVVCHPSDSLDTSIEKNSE

[3] = target: T3, Adenosine receptor A2b (Homo sapiens, UniProt P29275); assay: Antagonist activity at human adenosine A2B receptor expressed in CHO cells assessed as inhibition of NECA-induced adenylyl cyclase activity; format: functional, cell-based
T3 sequence (P29275 whole entry): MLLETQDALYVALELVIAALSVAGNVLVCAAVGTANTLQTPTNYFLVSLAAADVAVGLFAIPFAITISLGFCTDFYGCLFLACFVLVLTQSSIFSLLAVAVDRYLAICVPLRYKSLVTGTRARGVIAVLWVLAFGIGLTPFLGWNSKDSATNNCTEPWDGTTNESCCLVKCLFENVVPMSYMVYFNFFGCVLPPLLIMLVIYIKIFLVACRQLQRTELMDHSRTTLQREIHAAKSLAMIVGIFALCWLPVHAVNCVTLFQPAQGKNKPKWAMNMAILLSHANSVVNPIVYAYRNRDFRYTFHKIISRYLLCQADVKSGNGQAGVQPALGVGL

[4] = target: Adenosine receptor A2a (Homo sapiens, UniProt P29274); assay: biochemical
Chain of Adenosine receptor A2a (P29274 whole entry): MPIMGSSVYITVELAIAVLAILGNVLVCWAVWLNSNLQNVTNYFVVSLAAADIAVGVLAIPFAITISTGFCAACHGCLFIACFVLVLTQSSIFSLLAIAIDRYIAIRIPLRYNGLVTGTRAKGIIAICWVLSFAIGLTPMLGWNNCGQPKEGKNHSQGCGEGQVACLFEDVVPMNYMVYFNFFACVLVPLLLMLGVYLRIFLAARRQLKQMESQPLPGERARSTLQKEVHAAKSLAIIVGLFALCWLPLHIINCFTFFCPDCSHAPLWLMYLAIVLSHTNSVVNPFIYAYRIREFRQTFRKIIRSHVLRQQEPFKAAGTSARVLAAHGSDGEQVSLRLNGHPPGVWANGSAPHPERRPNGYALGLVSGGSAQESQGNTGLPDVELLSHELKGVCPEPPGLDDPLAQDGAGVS
Description: Displacement of [3H]NECA from human adenosine A2A receptor expressed in CHO cells

Ki [1] | Ki [2] | IC50 [3] | Ki [4] | SMILES
444 nM | 5.26 nM | > 10 µM | 56 nM | Cn1cc2c(nc(NC(=O)Cc3cccs3)n3nc(-c4ccco4)nc23)n1
908 nM | 44.4 nM | 6.45 µM | 45.2 nM | Cn1cc2c(nc(NC(=O)Cc3c(Cl)cccc3Cl)n3nc(-c4ccco4)nc23)n1
 | > 10000 nM |  | 4 nM | CCOC(=O)c1ccc(CCn2ncc3c2nc(N)n2nc(-c4ccco4)nc32)cc1
1170 nM | 410 nM | > 100 µM | 256 nM | O=C(Cc1ccc(-c2ccccc2)cc1)Nc1nc2nn(CCCc3ccccc3)cc2c2nc(-c3ccco3)nn12
256 nM | 30.5 nM | > 10 µM | 89.9 nM | O=C(Cc1ccc(Cl)cc1)Nc1nc2nn(CCCc3ccccc3)cc2c2nc(-c3ccco3)nn12
872 nM | 3.47 nM | > 10 µM | 80.5 nM | Cn1cc2c(nc(NC(=O)Cc3cccc4ccccc34)n3nc(-c4ccco4)nc23)n1
 | 2310 nM |  | 16.1 nM | CC(C)CCn1cc2c(nc(NC(=O)COc3ccc(Cl)cc3)n3nc(-c4ccco4)nc23)n1
963 nM | 223 nM | > 10 µM | 39.3 nM | Cn1cc2c(nc(NC(=O)COc3ccc(Cl)cc3)n3nc(-c4ccco4)nc23)n1
 | 71 nM |  | 3600 nM | O=C(Nc1cccc(Cl)c1)Nc1nc2nn(CCc3c(Br)cc(Br)cc3Br)cc2c2nc(-c3ccco3)nn12
80.2 nM | 0.93 nM | 0.491 µM | 46.5 nM | CCCn1cc2c(nc(NC(=O)C(c3ccccc3)c3ccccc3)n3nc(-c4ccco4)nc23)n1
741 nM | 0.97 nM | 13 µM | 54.1 nM | Cn1cc2c(nc(NC(=O)Cc3ccc(F)cc3)n3nc(-c4ccco4)nc23)n1
622 nM | 65.4 nM | > 10 µM | 52.5 nM | CCCn1cc2c(nc(NC(=O)Cc3ccc(-c4ccccc4)cc3)n3nc(-c4ccco4)nc23)n1
786 nM | 601 nM | > 10 µM | 186 nM | O=C(Cc1c(Cl)cccc1Cl)Nc1nc2nn(CCCc3ccccc3)cc2c2nc(-c3ccco3)nn12
441 nM | 5.86 nM | > 10 µM | 159 nM | CC(C)CCn1cc2c(nc(NC(=O)C(c3ccccc3)c3ccccc3)n3nc(-c4ccco4)nc23)n1
710 nM | 343 nM | > 100 µM | 305 nM | O=C(Cc1cccc2ccccc12)Nc1nc2nn(CCCc3ccccc3)cc2c2nc(-c3ccco3)nn12
605 nM | 110 nM | 50 µM | 182 nM | O=C(Cc1cccc(Cl)c1)Nc1nc2nn(CCCc3ccccc3)cc2c2nc(-c3ccco3)nn12
388 nM | 17.3 nM | 12.4 µM | 38.7 nM | CCCn1cc2c(nc(NC(=O)Cc3cccc4ccccc34)n3nc(-c4ccco4)nc23)n1
128 nM | 5.49 nM | > 3 µM | 43.9 nM | O=C(Cc1ccccc1)Nc1nc2nn(CCc3ccccc3)cc2c2nc(-c3ccco3)nn12
140 nM | 409 nM | > 10 µM | 15.7 nM | CC(C)CCn1cc2c(nc(NC(=O)Cc3ccc4ccccc4c3)n3nc(-c4ccco4)nc23)n1

Ki [1] | Ki [2] | IC50 [3] | Ki [4] | SMILES
 | 25 nM |  | 2030 nM | COc1ccc(NC(=O)Nc2nc3nn(CCc4c(Br)cc(Br)cc4Br)cc3c3nc(-c4ccco4)nn23)cc1
557 nM | 14.2 nM | > 50 µM | 70.9 nM | CCn1cc2c(nc(NC(=O)Cc3ccc(-c4ccccc4)cc3)n3nc(-c4ccco4)nc23)n1
 | 3250 nM |  | 31.7 nM | O=C(COc1ccc(Cl)cc1)Nc1nc2nn(CCc3ccccc3)cc2c2nc(-c3ccco3)nn12
 | 540 nM |  | 3.88 nM | CC(C)CCn1cc2c(nc(NC(=O)Cc3ccsc3)n3nc(-c4ccco4)nc23)n1
 | > 10000 nM |  | 0.43 nM | CCOC(=O)COc1ccc(CCCn2ncc3c2nc(N)n2nc(-c4ccco4)nc32)cc1
 | 359 nM |  | 1.95 nM | COc1ccc(CC(=O)Nc2nc3nn(CCC(C)C)cc3c3nc(-c4ccco4)nn23)cc1
 | > 10000 nM |  | 59 nM | Nc1nc2c(cnn2CCCc2ccc3c(c2)O[C@@H](C(=O)O)O3)c2nc(-c3ccco3)nn12
 | > 1000 nM |  | 50 nM | CSc1c2c(nc(NC(=O)Cc3ccc(OCC(C)C)cc3)n3nc(-c4ccco4)nc23)nn1C
 | 16 nM |  | 3260 nM | COc1ccc(NC(=O)Nc2nc3nn(Cc4cccc5ccccc45)cc3c3nc(-c4ccco4)nn23)cc1
 | 4480 nM |  | 348 nM | Nc1nc2nn(CCc3c(Br)cc(Br)cc3Br)cc2c2nc(-c3ccco3)nn12
 |  |  | 297 nM | CC(C)CCn1cc2c(nc(NC(=O)CCCNC(=O)OC(C)(C)C)n3nc(-c4ccco4)nc23)n1
 | > 10000 nM |  | 75 nM | Nc1nc2c(cnn2CCCc2ccc3c(c2S(=O)(=O)O)OCO3)c2nc(-c3ccco3)nn12
 | > 10000 nM |  | 5.48 nM | CCOC(=O)[C@H]1Oc2ccc(CCCn3ncc4c3nc(N)n3nc(-c5ccco5)nc43)cc2O1
 | 0.98 nM |  | 131 nM | CCn1cc2c(nc(NC(=O)C(c3ccccc3)c3ccccc3)n3nc(-c4ccco4)nc23)n1
 | 3760 nM |  |  | CCn1cc2c(nc(N)n3nc(-c4ccco4)nc23)n1
 |  |  | 288 nM | CC(C)(C)OC(=O)NCCCC(=O)Nc1nc2nn(CCc3ccccc3)cc2c2nc(-c3ccco3)nn12
 | 0.48 nM |  | 176 nM | C=Cn1cc2c(nc(NC(=O)Nc3ccc(OC)cc3)n3nc(-c4ccco4)nc23)n1
 | > 1000 nM |  |  | COc1ccc(CC(=O)Nc2nc3nn(C)c(SC)c3c3nc(-c4ccco4)nn23)cc1

SMILES | Ki [1] | Ki [2] | IC50 [3] | Ki [4]
CCCCn1cc2c(nc(NC(=O)Cc3ccsc3)n3nc(-c4ccco4)nc23)n1 | 25.5 nM | 189 nM | 0.906 µM | 3.13 nM
O=C(Cc1ccsc1)Nc1nc2nn(CCc3ccccc3)cc2c2nc(-c3ccco3)nn12 | 22.8 nM | 726 nM | > 10 µM | 
Cn1cc2c(nc(NC(=O)COc3ccccc3)n3nc(-c4ccco4)nc23)n1 |  | 692 nM |  | 
CC(C)CCn1cc2c(nc(NC(=O)Cc3ccc(-c4ccccc4)cc3)n3nc(-c4ccco4)nc23)n1 | 84.3 nM | 268 nM | 8.96 µM | 
CCCCn1cc2c(nc(NC(=O)Cc3cccc4ccccc34)n3nc(-c4ccco4)nc23)n1 | 170 nM | 100 nM | 7.37 µM | 
O=C(Cc1cccs1)Nc1nc2nn(CCc3ccccc3)cc2c2nc(-c3ccco3)nn12 | 18.5 nM | 330 nM | > 10 µM | 
COc1ccc(CC(=O)Nc2nc3nn(CCCc4ccccc4)cc3c3nc(-c4ccco4)nn23)cc1 |  | 120 nM |  | 
O=C(COc1ccc(Cl)cc1)Nc1nc2nn(CCCc3ccccc3)cc2c2nc(-c3ccco3)nn12 | 71.1 nM | 400 nM | > 10 µM | 
CCCCn1cc2c(nc(NC(=O)Cc3ccc4ccccc4c3)n3nc(-c4ccco4)nc23)n1 |  | 174 nM |  | 7.94 nM
O=C(Cc1cccc(Cl)c1)Nc1nc2nn(CCc3ccccc3)cc2c2nc(-c3ccco3)nn12 | 13.2 nM | 273 nM | 9.1 µM | 
CC(C)CCn1cc2c(nc(NC(=O)Cc3cccs3)n3nc(-c4ccco4)nc23)n1 |  | 308 nM |  | 
